Biological target: T1, PLK1 enzyme KD (Kinase Domain) 2-345 (Homo sapiens, UniProt P53350)
T1 construct: PLK1 kinase domain (corresponding to residues 2-345) was PCR amplified; His tag (N, cleaved yes); TEV cleavage site (N, cleaved yes); made in house; host or cells: High5 insect cells (baculovirus generated in Sf9)
Test: Biochemical assay for inhibitors of PLK-1 kinase activity (trans-phosphorylation, Dowex resin, 33P-ATP)
Conditions: PLK1 KD 2-345 3 nM, 40 microM ATP, 85 microM alpha-casein, 60 minutes at room temperature
Procedure: The inhibitory activity of putative kinase inhibitors and the potency of selected compounds were determined using a trans-phosphorylation assay.
Three cycles of mixing are done immediately after the addition of the resin.

T1 sequence (P53350 2-345): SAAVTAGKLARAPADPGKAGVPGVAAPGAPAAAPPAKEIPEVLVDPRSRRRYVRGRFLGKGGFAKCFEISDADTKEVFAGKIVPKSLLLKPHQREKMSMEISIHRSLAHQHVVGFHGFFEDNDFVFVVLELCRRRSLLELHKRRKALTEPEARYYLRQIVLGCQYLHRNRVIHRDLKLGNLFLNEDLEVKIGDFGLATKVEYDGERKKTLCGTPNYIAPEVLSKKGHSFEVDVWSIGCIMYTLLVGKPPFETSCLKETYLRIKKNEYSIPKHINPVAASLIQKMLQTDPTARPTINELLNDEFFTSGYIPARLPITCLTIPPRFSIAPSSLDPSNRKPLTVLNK

- IC50: 110 nM
SMILES: O=C1NCCc2[nH]c(-c3ccnc(Nc4ccccc4)n3)cc21 [Reference Compound]

Source: patent publication US8426417B2, “Substituted pyrrolo-pyrimidine derivatives, process for their preparation and their use as kinase inhibitors” (priority 2007, dated 2013)
